Reference: ChEMBL document CHEMBL4627310, “Design, synthesis and biological evaluation of 3-nitro-1,8-naphthalimides as potential antitumor agents” (Bioorg Med Chem Lett, 2020)

Key:
A549 = test: Antiproliferative activity against human A549 cells assessed as cell growth inhibition measured after 48 hrs by MTT assay; type: functional, cell-based; conditions: A549, 48 h
SK-OV-3 = test: Antiproliferative activity against human SKOV3 cells assessed as cell growth inhibition measured after 48 hrs by MTT assay; type: functional, cell-based; conditions: SK-OV-3, 48 h
HepG2 = test: Antiproliferative activity against human HepG2 cells assessed as cell growth inhibition measured after 48 hrs by MTT assay; type: functional, cell-based; conditions: HepG2, 48 h
SMMC-7721 = test: Antiproliferative activity against human SMMC7721 cells assessed as cell growth inhibition measured after 48 hrs by MTT assay; type: functional, cell-based; conditions: SMMC-7721, 48 h
L02 = test: Cytotoxicity against human HL7702 cells assessed as cell growth inhibition measured after 48 hrs by MTT assay; type: cell-based; conditions: L02, 48 h
T-24 = test: Antiproliferative activity against human T24 cells assessed as cell growth inhibition measured after 48 hrs by MTT assay; type: functional, cell-based; conditions: T-24, 48 h

IC50 (A549): 19.8 µM
IC50 (SK-OV-3): 28.2 µM
IC50 (HepG2): 10.3 µM
IC50 (SMMC-7721): 26.6 µM
SMILES: CNCCCN1C(=O)c2cccc3cc([N+](=O)[O-])cc(c23)C1=O
IC50 (L02): 14.3 µM
IC50 (T-24): 9.03 µM
